Patent publication US20140163023A1, “DIHYDROPYRROLO PYRIMIDINE DERIVATIVES AS MTOR INHIBITORS” (Cellzome Limited, priority 2011, published 2014)
Counter-ions that a name gives are not always drawn.

Columns and labels:
mTOR = target: T1, mTOR (Homo sapiens, UniProt P42345); test: mTOR kinobeads assay (competition binding in cell lysate, dot blot detection); settings: 1:1 mix of Jurkat and Ramos cell lysates, read-out: Inhibition values (IC50 in μM) as determined in the kinobeads assay, mTor
T1 construct: endogenous in cells; host or cells: Jurkat (ATCC TIB-152, clone E6-1) and Ramos (ATCC CRL-1596), 1:1 lysate mix
Method in brief: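 Competition binding in a 1:1 mix of Jurkat and Ramos cell lysates at 5 mg/ml total protein, with compounds in a 1:3 dilution series and an affinity matrix of two immobilized ligands, 2 h in the cold with shaking. mTOR captured on the beads was eluted and quantified by antibody dot blot with infrared detection. IC50 came from dose-response curves.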

PI3Kα = target: T2, PI3Kα (Homo sapiens, UniProt P42336); test: kinobeads assay, PI3Kα; type: binding; settings: 1:1 mix of Jurkat and Ramos cell lysates, read-out: Inhibition values (IC50 in μM) as determined in the kinobeads assay, PI3Kα
T2 construct: endogenous in cells; host or cells: Jurkat (ATCC TIB-152, clone E6-1) and Ramos (ATCC CRL-1596), 1:1 lysate mix
Method in brief: (§1)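 Inhibitor at serial dilutions (1:3, 9 steps) competed for binding to an affinity matrix of two immobilized ligands in a 1:1 Jurkat/Ramos lysate at 5 mg/ml protein, 2 h in a cold room. Bound kinases were eluted, quantified by antibody dot blot with infrared detection, and IC50 was taken from dose-response curves.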

PI3Kβ = target: T3, PI3Kβ (Homo sapiens, UniProt P42338); test: kinobeads assay, PI3Kβ; type: binding; settings: 1:1 mix of Jurkat and Ramos cell lysates, read-out: Inhibition values (IC50 in μM) as determined in the kinobeads assay, PI3Kβ
T3 construct: endogenous in cells; host or cells: Jurkat (ATCC TIB-152, clone E6-1) and Ramos (ATCC CRL-1596), 1:1 lysate mix
Method in brief: as §1

PI3Kδ = target: T4, PI3Kδ (Homo sapiens, UniProt O00329); test: kinobeads assay, PI3Kδ; type: binding; settings: 1:1 mix of Jurkat and Ramos cell lysates, read-out: Inhibition values (IC50 in μM) as determined in the kinobeads assay, PI3Kδ
T4 construct: endogenous in cells; host or cells: Jurkat (ATCC TIB-152, clone E6-1) and Ramos (ATCC CRL-1596), 1:1 lysate mix
Method in brief: as §1

PI3Kγ = target: T5, PI3Kγ (Homo sapiens, UniProt P48736); test: kinobeads assay, PI3Kγ; type: binding; settings: 1:1 mix of Jurkat and Ramos cell lysates, read-out: Inhibition values (IC50 in μM) as determined in the kinobeads assay, PI3Kγ
T5 construct: endogenous in cells; host or cells: Jurkat (ATCC TIB-152, clone E6-1) and Ramos (ATCC CRL-1596), 1:1 lysate mix
Method in brief: as §1

[1] = target: T6, DNA-dependent protein kinase (DNA-PK) (Homo sapiens, UniProt P78527); test: kinobeads assay, DNA-PK; type: binding; settings: 1:1 mix of Jurkat and Ramos cell lysates, read-out: Inhibition values (IC50 in μM) as determined in the kinobeads assay, DNA-PK
T6 construct: endogenous in cells; host or cells: Jurkat (ATCC TIB-152, clone E6-1) and Ramos (ATCC CRL-1596), 1:1 lysate mix
Method in brief: as §1

T2 sequence (P42336 whole entry): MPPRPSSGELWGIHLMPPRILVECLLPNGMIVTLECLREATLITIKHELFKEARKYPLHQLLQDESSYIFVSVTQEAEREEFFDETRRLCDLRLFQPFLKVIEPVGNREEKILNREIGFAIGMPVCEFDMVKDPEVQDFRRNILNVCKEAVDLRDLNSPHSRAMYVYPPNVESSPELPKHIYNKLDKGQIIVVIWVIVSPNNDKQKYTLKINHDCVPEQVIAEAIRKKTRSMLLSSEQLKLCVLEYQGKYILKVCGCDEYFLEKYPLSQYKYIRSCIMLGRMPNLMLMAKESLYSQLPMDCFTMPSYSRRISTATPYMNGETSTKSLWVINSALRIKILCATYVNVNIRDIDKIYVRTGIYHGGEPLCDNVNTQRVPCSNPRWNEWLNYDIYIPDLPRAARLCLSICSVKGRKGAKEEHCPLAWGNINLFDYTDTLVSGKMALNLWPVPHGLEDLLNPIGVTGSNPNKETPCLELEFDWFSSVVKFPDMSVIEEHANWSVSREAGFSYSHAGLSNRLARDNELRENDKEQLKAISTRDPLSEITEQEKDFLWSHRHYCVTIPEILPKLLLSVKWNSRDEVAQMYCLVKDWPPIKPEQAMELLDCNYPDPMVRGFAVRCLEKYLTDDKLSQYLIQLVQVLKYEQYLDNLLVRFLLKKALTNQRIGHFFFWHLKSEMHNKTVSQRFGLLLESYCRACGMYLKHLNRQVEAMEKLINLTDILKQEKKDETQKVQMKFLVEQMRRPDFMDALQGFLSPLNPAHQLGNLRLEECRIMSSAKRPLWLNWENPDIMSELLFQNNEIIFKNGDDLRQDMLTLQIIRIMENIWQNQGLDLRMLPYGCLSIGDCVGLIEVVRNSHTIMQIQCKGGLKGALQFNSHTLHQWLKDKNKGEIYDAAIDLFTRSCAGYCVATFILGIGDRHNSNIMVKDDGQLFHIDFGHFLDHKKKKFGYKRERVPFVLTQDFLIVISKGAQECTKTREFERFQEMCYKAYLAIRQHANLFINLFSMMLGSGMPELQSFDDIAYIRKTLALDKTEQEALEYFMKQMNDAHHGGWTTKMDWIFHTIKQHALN
T2 sequence (P27986 whole entry partner): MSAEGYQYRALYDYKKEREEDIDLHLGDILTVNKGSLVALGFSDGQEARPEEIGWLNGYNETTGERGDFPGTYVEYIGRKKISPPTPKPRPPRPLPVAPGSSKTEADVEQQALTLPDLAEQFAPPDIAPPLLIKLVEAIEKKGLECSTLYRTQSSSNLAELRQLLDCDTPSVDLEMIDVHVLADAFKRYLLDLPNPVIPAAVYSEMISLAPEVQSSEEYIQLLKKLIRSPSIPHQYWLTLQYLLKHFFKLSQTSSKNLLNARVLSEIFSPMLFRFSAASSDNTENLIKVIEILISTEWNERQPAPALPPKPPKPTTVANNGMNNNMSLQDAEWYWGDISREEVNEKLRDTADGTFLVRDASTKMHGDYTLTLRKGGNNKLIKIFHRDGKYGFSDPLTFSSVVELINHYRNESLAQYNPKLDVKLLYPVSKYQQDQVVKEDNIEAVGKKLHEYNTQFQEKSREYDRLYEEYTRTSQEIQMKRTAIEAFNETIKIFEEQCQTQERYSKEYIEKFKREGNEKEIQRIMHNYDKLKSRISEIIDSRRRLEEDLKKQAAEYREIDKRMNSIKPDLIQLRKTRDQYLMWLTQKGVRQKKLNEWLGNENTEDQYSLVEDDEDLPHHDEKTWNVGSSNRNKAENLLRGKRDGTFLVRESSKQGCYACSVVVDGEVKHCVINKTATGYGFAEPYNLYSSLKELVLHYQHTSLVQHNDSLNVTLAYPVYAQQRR
T5 sequence (P48736 whole entry): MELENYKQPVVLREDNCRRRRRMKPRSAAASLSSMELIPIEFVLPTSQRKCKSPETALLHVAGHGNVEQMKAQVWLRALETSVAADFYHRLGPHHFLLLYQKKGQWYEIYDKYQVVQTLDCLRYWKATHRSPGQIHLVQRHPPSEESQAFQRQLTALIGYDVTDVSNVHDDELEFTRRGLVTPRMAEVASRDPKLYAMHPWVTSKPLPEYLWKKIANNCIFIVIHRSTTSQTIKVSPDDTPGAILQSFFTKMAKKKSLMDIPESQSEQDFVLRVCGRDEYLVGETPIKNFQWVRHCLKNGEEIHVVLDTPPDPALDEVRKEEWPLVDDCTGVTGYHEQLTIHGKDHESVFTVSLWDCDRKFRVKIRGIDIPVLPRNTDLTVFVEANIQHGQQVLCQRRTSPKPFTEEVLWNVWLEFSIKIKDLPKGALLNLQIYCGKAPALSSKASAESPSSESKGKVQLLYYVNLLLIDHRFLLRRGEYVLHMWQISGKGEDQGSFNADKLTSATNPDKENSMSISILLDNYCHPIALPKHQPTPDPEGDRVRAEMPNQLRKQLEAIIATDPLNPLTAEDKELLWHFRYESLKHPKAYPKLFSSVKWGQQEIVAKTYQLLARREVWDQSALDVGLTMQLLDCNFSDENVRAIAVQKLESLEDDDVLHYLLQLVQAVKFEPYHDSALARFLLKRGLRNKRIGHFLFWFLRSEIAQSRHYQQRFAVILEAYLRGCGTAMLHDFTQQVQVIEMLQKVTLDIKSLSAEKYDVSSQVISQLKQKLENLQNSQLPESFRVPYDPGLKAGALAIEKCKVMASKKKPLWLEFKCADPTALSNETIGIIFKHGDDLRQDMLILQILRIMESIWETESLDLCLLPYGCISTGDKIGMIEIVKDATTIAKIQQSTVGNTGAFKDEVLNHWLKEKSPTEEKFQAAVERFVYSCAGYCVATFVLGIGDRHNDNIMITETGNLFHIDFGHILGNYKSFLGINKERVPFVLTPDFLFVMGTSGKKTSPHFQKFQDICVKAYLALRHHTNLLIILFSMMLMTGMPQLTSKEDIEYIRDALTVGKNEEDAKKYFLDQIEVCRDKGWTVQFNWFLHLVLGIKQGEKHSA
T4 sequence (O00329 whole entry): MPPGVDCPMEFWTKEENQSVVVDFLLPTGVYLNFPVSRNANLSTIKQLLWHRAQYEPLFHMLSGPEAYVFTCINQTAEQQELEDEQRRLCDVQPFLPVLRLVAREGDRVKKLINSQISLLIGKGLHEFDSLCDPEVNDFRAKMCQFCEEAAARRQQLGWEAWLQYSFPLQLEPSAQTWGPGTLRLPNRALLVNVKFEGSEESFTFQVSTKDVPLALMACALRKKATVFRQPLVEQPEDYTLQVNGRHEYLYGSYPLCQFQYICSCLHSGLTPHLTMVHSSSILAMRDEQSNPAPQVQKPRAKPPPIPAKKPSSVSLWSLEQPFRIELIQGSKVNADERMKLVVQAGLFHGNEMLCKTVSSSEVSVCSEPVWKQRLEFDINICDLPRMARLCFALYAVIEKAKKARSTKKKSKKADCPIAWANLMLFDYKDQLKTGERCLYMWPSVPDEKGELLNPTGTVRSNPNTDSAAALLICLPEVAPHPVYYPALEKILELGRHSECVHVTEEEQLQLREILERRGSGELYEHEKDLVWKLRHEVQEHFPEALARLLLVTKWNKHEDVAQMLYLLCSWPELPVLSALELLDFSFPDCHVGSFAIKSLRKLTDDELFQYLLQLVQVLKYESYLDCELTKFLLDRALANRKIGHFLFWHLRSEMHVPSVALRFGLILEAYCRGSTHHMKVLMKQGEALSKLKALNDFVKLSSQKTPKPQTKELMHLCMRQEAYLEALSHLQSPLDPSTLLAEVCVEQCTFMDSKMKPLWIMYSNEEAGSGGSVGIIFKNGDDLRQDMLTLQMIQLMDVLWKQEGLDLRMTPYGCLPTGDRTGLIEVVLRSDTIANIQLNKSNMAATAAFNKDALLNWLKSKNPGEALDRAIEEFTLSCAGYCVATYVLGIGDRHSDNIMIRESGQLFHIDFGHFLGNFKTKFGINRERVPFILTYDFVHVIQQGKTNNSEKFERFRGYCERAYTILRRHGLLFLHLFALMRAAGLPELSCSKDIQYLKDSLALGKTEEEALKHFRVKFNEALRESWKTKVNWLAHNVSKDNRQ
T4 sequence (P27986 whole entry partner): as the sequence (P27986 whole entry partner) above
T3 sequence (P42338 whole entry): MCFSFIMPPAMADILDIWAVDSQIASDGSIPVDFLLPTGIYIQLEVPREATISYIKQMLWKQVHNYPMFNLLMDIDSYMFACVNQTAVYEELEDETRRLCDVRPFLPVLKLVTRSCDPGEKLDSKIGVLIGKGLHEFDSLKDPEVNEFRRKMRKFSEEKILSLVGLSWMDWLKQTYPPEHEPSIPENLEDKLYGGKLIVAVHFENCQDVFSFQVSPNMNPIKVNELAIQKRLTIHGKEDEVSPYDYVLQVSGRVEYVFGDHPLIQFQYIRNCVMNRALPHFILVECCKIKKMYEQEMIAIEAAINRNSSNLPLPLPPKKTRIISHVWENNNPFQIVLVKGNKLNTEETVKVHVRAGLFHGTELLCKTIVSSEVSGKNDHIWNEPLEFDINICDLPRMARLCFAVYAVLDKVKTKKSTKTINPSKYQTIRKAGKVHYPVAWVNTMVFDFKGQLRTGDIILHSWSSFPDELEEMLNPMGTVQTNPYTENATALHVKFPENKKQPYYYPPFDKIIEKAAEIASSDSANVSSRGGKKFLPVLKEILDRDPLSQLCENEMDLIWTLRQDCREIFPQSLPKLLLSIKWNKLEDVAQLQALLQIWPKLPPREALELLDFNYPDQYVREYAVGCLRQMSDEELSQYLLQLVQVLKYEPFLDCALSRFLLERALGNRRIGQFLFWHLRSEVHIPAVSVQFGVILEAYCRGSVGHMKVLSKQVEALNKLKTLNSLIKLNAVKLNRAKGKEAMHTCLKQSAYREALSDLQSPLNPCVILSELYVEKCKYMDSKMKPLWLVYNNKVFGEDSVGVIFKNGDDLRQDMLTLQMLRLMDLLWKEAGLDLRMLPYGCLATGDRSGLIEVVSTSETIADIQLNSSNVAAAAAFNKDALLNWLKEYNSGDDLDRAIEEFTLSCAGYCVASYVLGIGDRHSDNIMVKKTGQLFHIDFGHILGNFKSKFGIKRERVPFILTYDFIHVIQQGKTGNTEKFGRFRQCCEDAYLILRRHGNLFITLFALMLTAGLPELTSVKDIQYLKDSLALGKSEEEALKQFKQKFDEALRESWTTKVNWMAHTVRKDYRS
T3 sequence (P27986 whole entry partner): as the sequence (P27986 whole entry partner) above

SMILES | IC50 (mTOR) [µM] | IC50 (PI3Kα) [µM] | IC50 (PI3Kβ) [µM] | IC50 (PI3Kδ) [µM] | IC50 (PI3Kγ) [µM] | IC50 [1] [µM]
CCNC(=O)Nc1ccc(-c2nc(N3CCOC[C@@H]3C)nc3c2CN(C(C)C)C3)cc1 [Example 46, (S)-1-ethyl-3-(4-(6-isopropyl-2-(3-methylmorpholino)-6,7-dihydro-5H-pyrrolo[3,4-d]pyrimidin-4-yl)phenyl)urea 2,2,2-trifluoroacetate] | 1 to 10 | > 100 | > 100 | > 100 | > 100 | > 100
C[C@H]1COCCN1c1nc2c(c(-c3ccc(NC(=O)NC4CC4)cc3)n1)CN(C(=O)CN1CCOCC1)C2 [Example 47, (S)-1-cyclopropyl-3-(4-(2-(3-methylmorpholino)-6-(2-morpholinoacetyl)-6,7-dihydro-5H-pyrrolo[3,4-d]pyrimidin-4-yl)phenyl)urea 2,2,2-trifluoroacetate] | 1 to 10 | > 100 | 10 to 100 | > 100 | > 100 | > 100
CC(C)CN1Cc2nc(N3CC4CCC(C3)O4)nc(-c3ccc(NC(=O)NCCO)cc3)c2C1 [Example 48, 1-(4-(2-(8-oxa-3-azabicyclo[3.2.1]octan-3-yl)-6-isobutyl-6,7-dihydro-5H-pyrrolo[3,4-d]pyrimidin-4-yl)phenyl)-3-(2-hydroxyethyl)urea 2,2,2-trifluoroacetate] | 1 to 10 | > 100 | > 100 | > 100 | > 100 | > 100
CCNC(=O)Nc1ccc(-c2nc(N3CC4CCC(C3)O4)nc3c2CN(C(C)C)C3)cc1 [Example 49, 1-(4-(2-(8-oxa-3-azabicyclo[3.2.1]octan-3-yl)-6-isopropyl-6,7-dihydro-5H-pyrrolo[3,4-d]pyrimidin-4-yl)phenyl)-3-ethylurea 2,2,2-trifluoroacetate] | 1 to 10 | > 100 | > 100 | > 100 | > 100 | > 100
CS(=O)(=O)N1Cc2nc(N3CC4CCC(C3)O4)nc(-c3ccc(NC(=O)NC4CC4)cc3)c2C1 [Example 50, 1-(4-(2-(8-oxa-3-azabicyclo[3.2.1]octan-3-yl)-6-(methylsulfonyl)-6,7-dihydro-5H-pyrrolo[3,4-d]pyrimidin-4-yl)phenyl)-3-cyclopropylurea] | 1 to 10 | > 100 | > 100 | > 100 | > 100 | > 100
CC(CO)NC(=O)Nc1ccc(-c2nc(N3CCOC[C@@H]3C)nc3c2CN(C(C)C)C3)cc1 (stereo partly drawn) [Example 51, 1-(1-hydroxypropan-2-yl)-3-(4-(6-isopropyl-2-((S)-3-methylmorpholino)-6,7-dihydro-5H-pyrrolo[3,4-d]pyrimidin-4-yl)phenyl)urea 2,2,2-trifluoroacetate] | 1 to 10 | > 100 | > 100 | > 100 | > 100 | > 100
CC(C)N1Cc2nc(N3CCOC[C@@H]3C)nc(-c3ccc(NC(=O)NCCC#N)cc3)c2C1 [Example 52, (S)-1-(2-cyanoethyl)-3-(4-(6-isopropyl-2-(3-methylmorpholino)-6,7-dihydro-5H-pyrrolo[3,4-d]pyrimidin-4-yl)phenyl)urea 2,2,2-trifluoroacetate] | 1 to 10 | > 100 | > 100 | > 100 | > 100 | > 100

Now from value to compound:

IC50 (mTOR) [µM] | IC50 (PI3Kα) [µM] | IC50 (PI3Kβ) [µM] | IC50 (PI3Kδ) [µM] | IC50 (PI3Kγ) [µM] | IC50 [1] [µM] | SMILES
1 to 10 | 10 to 100 | 10 to 100 | 10 to 100 | 10 to 100 | > 100 | C[C@H]1COCCN1c1nc2c(c(-c3ccc(NC(=O)NC4CC4)cc3)n1)CN(C(=O)C1CCCN1)C2 (stereo partly drawn) [Example 41, 1-cyclopropyl-3-(4-(2-((S)-3-methylmorpholino)-6-(pyrrolidine-2-carbonyl)-6,7-dihydro-5H-pyrrolo[3,4-d]pyrimidin-4-yl)phenyl)urea hydrochloride]
0.1 to 1 | 10 to 100 | 10 to 100 | 10 to 100 | > 100 | > 100 | C[C@H]1COCCN1c1nc2c(c(-c3ccc(NC(=O)NC4CC4)cc3)n1)CN(C(N)=O)C2 [Example 42, (S)-4-(4-(3-cyclopropylureido)phenyl)-2-(3-methylmorpholino)-5H-pyrrolo[3,4-d]pyrimidine-6(7H)-carboxamide 2,2,2-trifluoroacetate]
≤ 0.1 | > 100 | > 100 | > 100 | > 100 | 1 to 10 | O=C(NCCO)Nc1ccc(-c2nc(N3CC4CCC(C3)O4)nc3c2CNC3)cc1 [Example 43, 1-(4-(2-(8-oxa-3-azabicyclo[3.2.1]octan-3-yl)-6,7-dihydro-5H-pyrrolo[3,4-d]pyrimidin-4-yl)phenyl)-3-(2-hydroxyethyl)urea hydrochloride]
0.1 to 1 | > 100 | 10 to 100 | 10 to 100 | > 100 | 10 to 100 | CCNC(=O)Nc1ccc(-c2nc(N3CC4CCC(C3)O4)nc3c2CNC3)cc1 [Example 44, 1-(4-(2-(8-oxa-3-azabicyclo[3.2.1]octan-3-yl)-6,7-dihydro-5H-pyrrolo[3,4-d]pyrimidin-4-yl)phenyl)-3-ethylurea hydrochloride]
1 to 10 | 10 to 100 | > 100 | > 100 | > 100 | > 100 | CC(O)CNC(=O)Nc1ccc(-c2nc(N3CCOC[C@@H]3C)nc3c2CN(C(C)C)C3)cc1 (stereo partly drawn) [Example 45, 1-(2-hydroxypropyl)-3-(4-(6-isopropyl-2-((S)-3-methylmorpholino)-6,7-dihydro-5H-pyrrolo[3,4-d]pyrimidin-4-yl)phenyl)urea]
